Reference: patent US10143686B2, “Oxidosqualene cyclase as a protein target for anticancer therapeutics” (The Curators of the University of Missouri, priority 2010, dated 2018)
Where a name gives a salt, the structure may show the parent alone. Read-outs that look alike come from different tables or passages of the source.

Experiments:
[1] = test system: normal mammary AG11132A cells; assay: SRB cell viability assay, normal mammary cells; assay type: cell-based; conditions: 24 hours, FIG. 3
Description: (§1) The sulforhodamine B (SRB) assay was employed to evaluate the effect of OSC inhibitor Ro 48-8071 on viability of breast cancer and normal mammary gland cells with slight modification of the original procedure established at NCI. Accordingly, the cells were seeded in 96-well plates in 100 μl culture medium and incubated overnight at 37° C. with 5% CO2. […] The surviving or adherent cells were fixed in situ by withdrawing the growth medium and adding 100 μl of PBS and 100 μl of 50% cold trichloroacetic acid and then incubating at 4° C. for 1 h. The surviving cells were washed with ice-water, dried at room temperature (RT), and then stained with 50 μl 4% SRB for 8 min at RT. Unbound dye was removed by washing 5 times with cold 1% acetic acid, and the plates were dried at RT. Bound stain was solubilized with 150 μl 10 mM Tris buffer, and absorbance of samples were measured at 520 nm with a SpecTRA MAX 190 microplate reader (Sunnyvale, Calif.). In these experiments on BT-474, T47-D, and AG11132A cell lines, six wells were used for each concentration, and each experiment was performed at least twice.

[2] = test system: BT-474 human breast cancer xenograft; assay: BT-474 breast tumor xenograft in nude mice
Description: Female athymic nu/nu nude mice, 5 to 6 weeks-old (18-22 g) were purchased from Harland Sprague-Dawley, Inc. Nude mice were inoculated with 17-β-Estradiol pellets (1.7 mg/pellet, 60 days release) 48 hours before inoculating tumor cells. BT-474 human breast cancer cells, 5×10^6 in 0.15 ml solution mixed with matrigel and DMEM/F12 medium (4/1, v/v) were injected into each flank of mouse subcutaneously and both flanks of each mouse were injected. When tumor volume reached around 100 mm3, animal were randomly assigned to three groups and the treatment started with RO 48-8071 (5 mg/kg/day or 10 mg/kg/day) via tail-vein injection for five days, followed by same treatment every other day for five additional times as shown in the FIG. 13A. Animals in control group received the vehicle alone under identical conditions. Tumor volumes were measured by a digital caliper and calculated using the formula (L×W×H)×0.5236.
Animal weight was monitored throughout the experiment.

[3] = test system: T47-D breast cancer cells; assay: SRB cell viability assay, T47-D; assay type: cell-based; conditions: for IC50: Homo sapiens, T47D, Breast (ER+ PR+)
Description: as §1
(§2) The effect of OSC inhibition was evaluated in additional cancer cell lines as well. Cancer cell lines may be purchased from ATCC (Manassas, Va.). The SRB assay has been employed for determination of the inhibitory effects of RO 48-8071 on growth of different cancer cells. Cells were seeded into 96-well plates and incubated overnight at 37° C. with 5% CO2. The culture medium was removed after 24 hours, and cells were washed with DMEM/F12 medium and then treated with various concentrations of RO 48-8071 in 5% FBS culture medium for 24 and 48 hours. Surviving or adherent cells were fixed in situ by withdrawing the growth medium, adding 100 μl PBS and 100 μl 50% trichloroacetic acid and then incubating at 4° C. for one hour. Cells were washed with ice-cold water, dried at room temperature (RT), and then stained with 50 μl 4% SRB for eight minutes at RT. Unbound dye was removed by washing with cold 1% acetic acid for five times, and plates were dried at RT. Bound stain was solubilized with 150 μl 10 mM Tris buffer and absorbance of samples was read at 520 nm with a SpecTRA MAX 190 microplate reader (Molecular Devices, Sunnyvale, Calif.). Six wells were used for each concentration, and each experiment was performed two to three times.
Effect of RO 48-8071 on breast cancer cell line T47-D viability. […] The culture mediums employed 10% FBS DMEM/F12 for culture and 5% FBS DMEM/F12 for treatment.

[4] = test system: H69AR lung cancer cells; assay: SRB cell viability assay, H69AR; assay type: cell-based; conditions: Homo sapiens
Description: as §2
Effect of RO 48-8071 on lung cancer cell line H69AR viability. […] The culture mediums employed 20% FBS RPMI-1640 for culture and 10% FBS RPMI-1640 for treatment.

[5] = test system: MDA-231 breast cancer cells; assay: SRB cell viability assay, MDA-231; assay type: cell-based; conditions: Homo sapiens, MDA-MB-231, MDA-231, Breast (triple negative)
Description: as §2
Effect of RO 48-8071 on estrogen, progesterone, and HER-2/neu receptors negative breast cancer cell line MDA-231 and BT-20 viability. […]

[6] = test system: HCC-1428 breast cancer cells; assay: SRB cell viability assay, HCC-1428; assay type: cell-based; conditions: Homo sapiens, HCC1428, HCC-1428, Breast (ER+ PR+)
Description: as §2
Effect of RO 48-8071 on estrogen, progesterone, and HER-2/neu receptors positive breast cancer cell line HCC-1428 and ZR-75 viability. […]

[7] = test system: DLD-1 colon cancer cells; assay: SRB cell viability assay, DLD-1; assay type: cell-based; conditions: Homo sapiens
Description: as §2
Effect of RO 48-8071 on colon cancer cell line DLD-1 viability. […] The culture mediums employed 10% FBS RPMI-1640 for culture and 5% FBS RPMI-1640 for treatment.

[8] = test system: MCF-7 breast cancer cells; assay: SRB cell viability assay, MCF-7; assay type: cell-based; conditions: Homo sapiens, MCF7, MCF-7, Breast (ER+ PR+)
Description: as §2
Effect of RO 48-8071 on breast cancer cell line MCF-7 viability. […]

[9] = test system: SK-OV-3 ovarian cancer cells; assay: SRB cell viability assay, SK-OV-3; assay type: cell-based; conditions: Homo sapiens, SK-OV-3, Ovary
Description: as §2
Effect of RO 48-8071 on ovarian cancer cell line SK-OV-3 viability. […]

[10] = 24 hours, read-out: IC50 (μM) (24 hours)
[11] = 48 hours, read-out: IC50 (μM) (48 hours)

With `C=CCN(C)CCCCCCOc1ccc(C(=O)c2ccc(Br)cc2)c(F)c1` [Ro 48-8071, 4′-[6-(Allylmethylamino)hexyloxy]-4-bromo-2′-fluorobenzophenone fumarate] the “inhibition of normal mammary cell viability compared with BT-474” value [1] was “significantly less inhibition”, the “tumor volume versus control group” value ([2]; 5 or 10 mg/kg/day, tail-vein injection, P<0.05 ANOVA, FIG. 13A) was “Significant differences were observed compared with control group” and the “toxicity at doses used for inhibiting tumor growth” value ([2]; BT-474 tumor-bearing nude mice) was “non-toxic”. The “animal weight, control versus treated groups” value ([2]; BT-474 tumor-bearing nude mice, FIG. 13B) was “No significant difference”, the “effect on cell viability (SRB)” value ([3]; 24 hours, dose-dependent, FIG. 2B) was “significantly inhibit the viability” and the IC50 [3, 10] was 11.5 ± 0.358 µM. The IC50 [3, 11] was 7.76 ± 0.293 µM, the IC50 [4, 10] was 10.8 ± 0.609 µM and the IC50 [4, 11] was 8.11 ± 0.355 µM. For the same molecule, the IC50 [5, 10] was 15 ± 0.482 µM, the IC50 [5, 11] was 10.7 ± 0.276 µM and the IC50 [6, 10] was 14.6 ± 0.417 µM. The IC50 [6, 11] was 11.6 ± 0.336 µM, the IC50 [7, 10] was 11.5 ± 0.243 µM and the IC50 [7, 11] was 6.92 ± 0.41 µM. The IC50 [8, 10] was 12.3 ± 0.585 µM, the IC50 [8, 11] was 6.33 ± 0.344 µM and the IC50 [9, 10] was 18.3 ± 0.639 µM. For the same molecule, the IC50 [9, 11] was 12.7 ± 0.521 µM.
